Where two headings read alike, the source gives them in different places.
How the values were obtained:
MDM2 = MDM2 (Homo sapiens, UniProt Q00987); assay: MDM2 binding assay (fluorescence polarization); details: for Inhibition (200 μM, %): 200 μM compound; for inhibition at 200 µM: read-out: Inhibition (200 μM, %), 200 μM compound
Description: The MDM2 binding tests of all 17 compounds were carried out by a fluorescence polarization assay.
30 nM preincubated (30 min) MDM2 and 10 nM PMDM-F peptide in reaction buffer (100 μL, potassium phosphate, 100 mM; bovine gamma globulin, […]; sodium azide, 0.02%) were added into a 96-well plate containing tested compounds at pH 7.5. […] The Ki values were calculated according to a reported method.

Cathepsin K = biological target: T1, Cathepsin K (Homo sapiens, UniProt P43235); assay: Cathepsin K inhibitory activity; format: biochemical
T1 sequence (P43235 115-329): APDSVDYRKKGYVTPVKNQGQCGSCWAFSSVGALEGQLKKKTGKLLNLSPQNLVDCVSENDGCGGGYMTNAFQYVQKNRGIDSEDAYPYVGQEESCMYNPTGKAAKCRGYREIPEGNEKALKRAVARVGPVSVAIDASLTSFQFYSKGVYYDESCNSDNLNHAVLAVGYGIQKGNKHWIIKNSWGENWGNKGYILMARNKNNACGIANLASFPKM

HCT116 (p53 +/+) cells = assay: cells; format: cell-based, human; details: read-out: IC50 (μM) ± SD HCT116 (p53 +/+)
Description: (§1) Compounds were tested at six concentrations (0.001–100 μM).
(§2) The cells were seeded into a 96-well plate and incubated at 37°C in 5% CO2 for 24 h, after which the test compounds were added to the culture medium and the cells were incubated for 48 h. 20 μL fresh MTT was added to each well, and the cells were incubated at 37°C in 5% CO2 for 4 h. After removing the culture medium, 150 μL DMSO was added to dissolve the formazan crystals. The absorbance at 540 nm was measured using a microplate reader. The results, expressed as IC50 values, were the average of three determinations and were calculated using nonlinear regression analysis.

HCT116 (p53 -/-) cells = assay: cells; format: cell-based, human; details: read-out: IC50 (μM) ± SD HCT116 (p53 -/-)
Description: as §1, §2

MCF7 (p53 +/+) cells = assay: cells; format: cell-based, human; details: read-out: IC50 (μM) ± SD MCF7 (p53 +/+)
Description: as §1, §2

MCF7 (p53 -/-) cells = assay: cells; format: cell-based; details: Homo sapiens, read-out: IC50 (μM) ± SD MCF7 (p53 -/-)
Description: as §1, §2

human MDM2 = details: training set, cited from earlier work; for IC50: ref 24 (TS-1), 25 (TS-2), 12 (TS-3), 26 (TS-4), 8 (TS-6), 28 (TS-7), read-out: Potency human MDM2 (nM), IC50
[1] = Homo sapiens, HCT-116, MTT, 48 h

Sequence of MDM2 (Q00987 whole entry): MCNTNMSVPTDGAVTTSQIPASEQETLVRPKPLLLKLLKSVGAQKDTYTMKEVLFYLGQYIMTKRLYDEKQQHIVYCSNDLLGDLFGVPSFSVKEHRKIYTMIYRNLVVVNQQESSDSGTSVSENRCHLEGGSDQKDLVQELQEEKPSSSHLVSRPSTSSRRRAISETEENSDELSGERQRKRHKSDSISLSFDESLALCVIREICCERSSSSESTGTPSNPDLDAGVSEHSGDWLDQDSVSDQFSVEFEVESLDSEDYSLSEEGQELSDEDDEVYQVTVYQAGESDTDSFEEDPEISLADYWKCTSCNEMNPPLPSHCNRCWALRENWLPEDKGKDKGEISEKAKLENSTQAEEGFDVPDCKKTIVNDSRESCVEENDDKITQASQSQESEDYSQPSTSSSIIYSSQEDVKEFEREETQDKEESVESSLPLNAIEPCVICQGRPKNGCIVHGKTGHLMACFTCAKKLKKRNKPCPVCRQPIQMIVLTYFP

| SMILES | Ki (MDM2) [µM] | Inhibition (200 μM, %) (MDM2; 200 µM) [%] | inhibition at 200 µM (MDM2) [%] | IC50 (Cathepsin K; read-out: Cathepsin K IC50) [µM] | further results |
| --- | --- | --- | --- | --- | --- |
| CCOC(=O)c1cc(C(C)c2ccccc2)sc1NC(=O)c1cccc(COc2ccccc2Cl)c1 (stereo not shown) [Compound 1, Ethyl 2-({3-[(2-chlorophenoxy)methyl]benzoyl}amino)-5-(1-phenylethyl)-3-thiophenecarboxylate] | 43.5 | 80.2 | > 80 | > 200 | – |
| C=CCn1c(SCC(=O)N2N=C(c3ccco3)CC2c2ccco2)nnc1-c1ccncc1 (stereo not shown) [Compound 2, 4-allyl-5-(4-pyridinyl)-4H-1,2,4-triazol-3-yl 2-[3,5-di(2-furyl)-4,5-dihydro-1H-pyrazol-1-yl]-2-oxoethyl sulfide] | 9.5 | 95.8 | > 80 | > 200 | IC50 (HCT116 (p53 +/+) cells; [1]): 35.5 ± 1.48 µM; IC50 (HCT116 (p53 -/-) cells; [1]): 58.2 ± 4.57 µM; IC50 (MCF7 (p53 +/+) cells; Homo sapiens, MCF7, MTT, 48 h): > 100 µM; IC50 (MCF7 (p53 -/-) cells; MCF7, MTT, 48 h): > 100 µM |
| O=c1nc(SCc2nc3ccccc3n2Cc2ccccc2)[nH]c2ccccc12 [Compound 3, 2-{[(1-benzyl-1H-benzimidazol-2-yl)methyl]sulfanyl}-4(1H)-quinazolinone] | 104 | – | 62.4 | > 200 | – |
| CC(C)N(C(=O)Cn1c(COc2ccc3ccccc3c2)nc2ccccc21)c1ccccc1 [Compound 4, N-isopropyl-2-{2-[(2-naphthyloxy)methyl]-1H-benzimidazol-1-yl}-N-phenylacetamide] | 99.5 | – | 76.3 | > 200 | – |
| O=S(=O)(Nc1nc2ccccc2nc1Nc1cccc(O)c1)c1ccc(Cl)cc1 [Compound 5, 4-chloro-N-[3-(3-hydroxyanilino)-2-quinoxalinyl]benzenesulfonamide] | 8.5 | 90.31 | > 80 | > 200 | IC50 (HCT116 (p53 +/+) cells; Homo sapiens, HCT-116, 48 h): 17.4 ± 1.8 µM; IC50 (HCT116 (p53 -/-) cells; Homo sapiens, HCT-116, 48 h): 40.8 ± 3.54 µM; IC50 (MCF7 (p53 +/+) cells; Homo sapiens, MCF7, 48 h): 40.2 ± 1.77 µM; IC50 (MCF7 (p53 -/-) cells; MCF7, 48 h): 56.4 ± 4.12 µM |
| CCOC(=O)/C=C1\NC(C)(C)Cc2cc(OC)c(OC)cc21 [Compound 6, Ethyl (6,7-dimethoxy-3,3-dimethyl-3,4-dihydro-1(2H)-isoquinolinylidene)acetate] | > 200 | 46.6 | < 50 | > 200 | – |
| CCc1nnc(NC(=O)CSc2nnc(COc3ccccc3)n2-c2ccc(C)cc2)s1 [Compound 7, N-(5-ethyl-1,3,4-thiadiazol-2-yl)-2-{[4-(4-methylphenyl)-5-(phenoxymethyl)-4H-1,2,4-triazol-3-yl]sulfanyl}acetamide] | 98.3 | – | 63.7 | > 200 | – |
| C=CCn1c(COc2ccccc2)nnc1SC(C)C(=O)NN=Cc1ccccc1F (stereo not shown) [Compound 8, 2-{[4-allyl-5-(phenoxymethyl)-4H-1,2,4-triazol-3-yl]sulfanyl}-N'-(2-fluorobenzylidene)propanohydrazide] | 23.4 | 84.7 | > 80 | > 200 | IC50 (HCT116 (p53 +/+) cells; [1]): > 100 µM; IC50 (HCT116 (p53 -/-) cells; [1]): > 100 µM; IC50 (MCF7 (p53 +/+) cells; Homo sapiens, MCF7, MTT, 48 h): > 100 µM; IC50 (MCF7 (p53 -/-) cells; MCF7, MTT, 48 h): > 100 µM |
| COc1cccc(OCC(=O)N(Cc2nc(-c3ccccc3)no2)C2CCCCC2)c1 [Compound 10, N-cyclohexyl-2-(3-methoxyphenoxy)-N-[(3-phenyl-1,2,4-oxadiazol-5-yl)methyl]acetamide] | 3.2 | 96.5 | > 80 | > 200 | fold less potent in MDM2 binding affinity than nutlin-3a (MDM2; versus nutlin-3a): approximately 20 fold; IC50 (HCT116 (p53 +/+) cells; Homo sapiens, HCT-116, 48 h): 12.6 ± 2.32 µM; IC50 (HCT116 (p53 -/-) cells; Homo sapiens, HCT-116, 48 h): 24.1 ± 2.31 µM; IC50 (MCF7 (p53 +/+) cells; Homo sapiens, MCF7, 48 h): 19.4 ± 2.26 µM; IC50 (MCF7 (p53 -/-) cells; MCF7, MTT, 48 h): 26.7 ± 1.65 µM |
| COC(=O)C1C(CBr)N1N1C(=O)c2ccccc2C1=O (stereo not shown) [Compound 13, Methyl 3-(bromomethyl)-1-(1,3-dioxo-1,3-dihydro-2H-isoindol-2-yl)-2-aziridinecarboxylate] | > 200 | 42.9 | < 50 | – | IC50 (Cathepsin K): > 200 µM |
| O=C(O)CC1c2ccccc2CCN1S(=O)(=O)c1ccccc1 (stereo not shown) [Compound 15, [2-(phenylsulfonyl)-1,2,3,4-tetrahydroisoquinolin-1-yl]acetic acid] | 23.1 | 82.1 | > 80 | > 200 | IC50 (HCT116 (p53 +/+) cells; [1]): 28.1 ± 2.53 µM; IC50 (HCT116 (p53 -/-) cells; [1]): 51.7 ± 4.15 µM; IC50 (MCF7 (p53 +/+) cells; Homo sapiens, MCF7, MTT, 48 h): > 100 µM; IC50 (MCF7 (p53 -/-) cells; MCF7, MTT, 48 h): > 100 µM |
| COc1ccc(C2=N[C@@H](c3ccc(Cl)cc3)[C@@H](c3ccc(Cl)cc3)N2C(=O)N2CCNC(=O)C2)c(OC(C)C)c1 [Nutlin-3a, reference compound] | – | – | – | – | IC50 (HCT116 (p53 +/+) cells; MTT, 48 h): 18.1 ± 2.17 µM; IC50 (HCT116 (p53 -/-) cells; MTT, 48 h): 40.7 ± 1.47 µM; IC50 (MCF7 (p53 +/+) cells; MTT, 48 h): 32.2 ± 1.49 µM |
| CCOc1cc(C(C)(C)C)ccc1C1=NC(C)(c2ccc(Cl)cc2)C(C)(c2ccc(Cl)cc2)N1C(=O)N1CCN(CCCS(C)(=O)=O)CC1 (stereo not shown) [TS-2] | – | – | – | – | IC50 (human MDM2): 18 nM |
| CC(C)(C)C[C@H]1N[C@@H](C(N)=O)[C@H](c2cccc(Cl)c2F)C12C(=O)Nc1cc(Cl)ccc12 (stereo partly shown) [TS-5] | – | – | – | – | Ki (human MDM2; read-out: Potency human MDM2 (nM), Ki): 3 nM |
| O=C(NCCN1CCOCC1)c1[nH]c2cc(Cl)ccc2c1-c1c(-c2ccccc2)ncn1Cc1ccc(Cl)cc1 [TS-6] | – | – | – | – | IC50 (human MDM2): 30 nM |

Second part, led by results:

| Ki (MDM2) [µM] | Inhibition (200 μM, %) (MDM2; 200 µM) [%] | inhibition at 200 µM (MDM2) [%] | IC50 (Cathepsin K; read-out: Cathepsin K IC50) [µM] | SMILES | further results |
| --- | --- | --- | --- | --- | --- |
| > 200 | 37.6 | < 50 | > 200 | O=C(c1cc2n(n1)C(C(F)(F)F)CC(c1ccc(Br)cc1)N2)N(Cc1ccccc1)c1ccccc1 (stereo not shown) [Compound 9, N-benzyl-5-(4-bromophenyl)-N-phenyl-7-(trifluoromethyl)-4,5,6,7-tetrahydropyrazolo[1,5-a]pyrimidine-2-carboxamide] | – |
| > 200 | 32.3 | < 50 | > 200 | COc1ccc(OCc2nnc3sc(COc4ccccc4Cl)nn23)cc1 [Compound 11, 6-[(2-chlorophenoxy)methyl]-3-[(4-methoxyphenoxy)methyl][1,2,4]triazolo[3,4-b][1,3,4]thiadiazole] | – |
| > 200 | 18.8 | – | > 200 | [N-]=[N+]=CC(=O)C(O)(c1ccccc1)C(Cl)c1ccccc1 (stereo not shown) [Compound 12, 4-chloro-1-diazo-3-hydroxy-3,4-diphenyl-2-butanone] | Inhibition (200 μM, %) (MDM2; listed as AB-131/42300827, 200 µM): < 50% |
| 127 | – | 68.6 | > 200 | CCOC(=O)c1nnn(-c2nonc2N)c1CNc1ccccc1 [Compound 14, Ethyl 1-(4-amino-1,2,5-oxadiazol-3-yl)-5-(anilinomethyl)-1H-1,2,3-triazole-4-carboxylate] | – |
| – | – | 72.4 | > 200 | Cc1nn(-c2ccccc2)c(O)c1/N=N/c1cccc2ncccc12 [Compound 16, 3-Methyl-1-phenyl-4-(quinolin-5-yldiazenyl)-1H-pyrazol-5-ol] | Ki (MDM2; fluorescence polarization, eight concentrations 0.091–200 μM): 64.6 µM |
| > 200 | 47.3 | < 50 | > 200 | CCOC(=O)c1c(-c2ccccc2)oc2ccc(O)c(CN(C)C)c12 [Compound 17, Ethyl 4-[(dimethylamino)methyl]-5-hydroxy-2-phenyl-1-benzofuran-3-carboxylate] | – |
| – | – | – | 0.001 | CC(C)(F)C[C@H](N[C@@H](c1ccc(-c2ccc(S(C)(=O)=O)cc2)cc1)C(F)(F)F)C(=O)NC1(C#N)CC1 [Odancatib, reference compound] | – |

From article PMC8369186, “Ligand-Based and Docking-Based Virtual Screening of MDM2 Inhibitors as Potent Anticancer Agents” (Computational and Mathematical Methods in Medicine, 2021)
